This note sets out measurements from PubChem BioAssay AID1981 (Southern Research Specialized Biocontainment Screening …, 2009).

pIC50: −log10 of the molar value.

This test deals with S. Typhimurium PhoP-promoter GFP reporter counterscreen, fluorescence, 4 h. Briefly: S. Typhimurium GFP fluorescence modified counterscreen for PhoP regulon inhibitor project dose response (AID 1981). (The purpose of a counterscreen is to sort out artefacts and off-target activity.)

On to `Nc1cc(Cl)c2nonc2c1[N+](=O)[O-]`, for which the pIC50 was 4.40.

As to `Nc1nc(F)nc2c1ncn2[C@@H]1O[C@H](CO)[C@@H](O)[C@H]1O`, the pIC50 was 4.74.

In the case of `Cc1sc2ncnc(N/N=C/c3ccccc3O)c2c1C`, the pIC50 was 4.16.

In the case of `CN1CCN(CCCN2c3ccccc3Sc3ccc(Cl)cc32)CC1`, the pIC50 is 3.83.

Turning to `COc1c(N2CCNC(C)C2)c(F)cc2c(=O)c(C(=O)O)cn(C3CC3)c12` (stereo unspecified), the pIC50 was 6.36.

For `O=C(Nc1cccc(N=Cc2cc(Br)cc(Br)c2O)c1)c1ccco1`, the pIC50 was 3.93.

Consider `NC1CCN(c2c(F)cc3c(=O)c(C(=O)O)cn(C4CC4)c3c2Cl)C1` (stereo unspecified), for which the pIC50 was more than 6.64.

For the molecule `CCCC(=O)NC(c1cccs1)c1cc([N+](=O)[O-])c2cccnc2c1O` (stereo unspecified), the pIC50 was 4.52.

As for `O=C(c1cccs1)c1no[n+]([O-])c1C(=O)c1cccs1`, the pIC50 was 4.89.

Consider `CN1CCN(c2c(F)cc3c(=O)c(C(=O)O)cn4c3c2OCN4C)CC1`, for which the pIC50 is 6.55.

With `Cc1ccc(S(=O)(=O)Nc2cc(Cl)c(O)c3ncccc23)cc1`, the pIC50 is 4.43.

For the molecule `C#CCOCCOCCOCCNc1nc(N2CCN(C(=O)CCCCCCCCCCNC(=O)[C@H](CO)n3cc(CCCCCN)nn3)CC2)nc(N2CCN(C(=O)CCCCCCCCCCNC(=O)[C@H](CCCN=C(N)N)n3cc(C[C@@H](C)CC)nn3)CC2)n1`, the pIC50 is 4.04.

`Clc1ccc(CN2CCC(c3nc4ccc(Cl)cc4[nH]3)CC2)cc1`: the pIC50 is 4.29.

With `CCCNC(=O)c1cn(CC)c2cc(N3CCN(C)CC3)c(F)cc2c1=O`, the pIC50 was 4.39.

Take `COc1ccc(C(=O)N/N=C/c2sc3ccccc3c2O)cc1`: the pIC50 is 3.96.

Consider `CCCCCCCCCCCCCCCC[N+](C)(C)C`, for which the pIC50 was 4.42.

Regarding `c1cnc2c(c1)ccc1cccnc12`, the pIC50 was 4.40.

`CCCCCCNC(=O)c1cn(CC)c2cc(N3CCN(C)CC3)c(F)cc2c1=O`: the pIC50 is 4.49.

For the molecule `CCCCCCCCCC[n+]1cccc2c3ccccc3ccc21`, the pIC50 was 4.36.

Turning to `Nc1cc2nsnc2cc1Br`, the negative logarithm of the IC50 (pIC50) was 4.52.

Take `Cc1[nH]n(-c2ccccc2)c(=O)c1/C=N/Nc1nncc(-c2ccccc2)n1`: the pIC50 is 4.66.

With `CNc1cc(Cl)c2nonc2c1[N+](=O)[O-]`, the pIC50 is 3.94.

Take `Cc1cc(NC(c2cccnc2)c2ccc3cccnc3c2O)no1` (stereo unspecified): the negative-log IC50 (pIC50) was 3.89.

With `O=C(C[n+]1cc(-c2ccc(Cl)cc2)n2c1CCC2)Nc1nc(-c2ccccc2)cs1`, the pIC50 is 4.02.

As to `Oc1c(CN2CCCCC2)cc(COCc2ccccc2)c2cccnc12`, the pIC50 was 4.07.

Regarding `CCC(C)(C)c1ccc(OCCCC[n+]2ccc(C)cc2)c(C(C)(C)CC)c1`, the pIC50 was 4.08.

As for `CCN(CC)c1ccc(/C=N/Nc2nc3ccccc3[nH]2)c(O)c1`, the pIC50 was 4.40.

For the molecule `Oc1ccc(N2CCN(Cc3ccc(OCCCN4CCCCC4)cc3)CC2)cc1`, the pIC50 is 3.96.

Turning to `O=C1OCC(CO)(CO)N=C1NNc1ccc(Cl)c(Cl)c1`, the pIC50 is 4.27.

For `CC[C@@H](C)[C@H](CNC)NC[C@@H](Cc1cccc2ccccc12)NCCc1cccc(C(F)(F)F)c1`, the pIC50 was 4.40.

With `CCn1cc(C(=O)O)c(=O)c2ccc(C)nc21`, the pIC50 is 3.93.

Take `Fc1ccc(Nc2nc(NCc3ccco3)c3ccccc3n2)cc1`: the pIC50 is 4.49.

Take `CCCCC(CC)CN=C(N)NC(N)=NCCCCCCN=C(N)NC(N)=NCC(CC)CCCC` (stereo unspecified): the pIC50 was 5.26.

`CNC(=S)N1CCN(c2c(F)cc3c(=O)c(C(=O)O)cn(C4CC4)c3c2OC)CC1C` (stereo unspecified): the negative logarithm of the IC50 (pIC50) is 4.82.

For `Cc1cc2nc3ccc(=[N+](C)C)cc-3sc2cc1N`, the negative-log IC50 (pIC50) was 4.49.

For the molecule `N=c1n(Cc2ccccc2)c2ccccc2n1CC(O)COc1ccc(Cl)cc1Cl` (stereo unspecified), the pIC50 is 4.31.

Usually pIC50 stands for the IC50 on a negative log10 scale, so that one unit is a factor of ten.
